Test results reported in patent US20140135310A1, “SULPHONAMIDE DERIVATIVES OF ALICYCLIC AMINES FOR THE TREATMENT OF CENTRAL NERVOUS SYSTEM DISEASES” (Adamed Sp. z o.o., priority 2011, published 2014).

Key:
5-HT2C receptor = molecular target: T1, 5-HT2C receptor (Homo sapiens, UniProt P28335); assay: Radioligand binding assay, serotoninergic 5-HT2C receptors; conditions: test compound 1×10^−6 M
T1 construct: expressed in transfected cells; host or cells: HEK-293 cells
T1 sequence (P28335 33-458): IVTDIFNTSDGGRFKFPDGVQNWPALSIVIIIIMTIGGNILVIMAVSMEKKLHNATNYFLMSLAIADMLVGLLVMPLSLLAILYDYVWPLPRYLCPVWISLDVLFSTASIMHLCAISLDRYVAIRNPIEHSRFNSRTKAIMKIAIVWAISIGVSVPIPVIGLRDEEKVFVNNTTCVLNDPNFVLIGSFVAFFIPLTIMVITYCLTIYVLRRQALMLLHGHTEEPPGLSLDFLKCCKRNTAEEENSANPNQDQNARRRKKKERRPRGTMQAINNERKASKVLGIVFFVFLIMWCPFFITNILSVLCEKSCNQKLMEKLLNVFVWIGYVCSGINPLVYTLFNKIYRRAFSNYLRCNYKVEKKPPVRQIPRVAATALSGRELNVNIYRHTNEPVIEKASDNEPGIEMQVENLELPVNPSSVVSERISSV
Text: (§1) The specific ligand binding to the receptors is defined as the difference between the total binding and the non-specific binding determined in the presence of the excess of unlabelled ligand.
(§2) The results are expressed as a percent of control specific binding ((measured specific binding/control specific binding)×100) and as a percent inhibition of control specific binding (100−((measured specific binding/control specific binding)×100)) obtained in the presence of the test compounds. The specific ligand binding to the receptors is defined as the difference between the total binding and the nonspecific binding determined in the presence of an excess of unlabelled ligand. Scintillation counting was the method of detection of ligand binding. The IC50 values (concentration causing a half-maximal inhibition of control specific binding) were determined by non-linear regression analysis of the competition curves generated with mean replicate values using Hill equation curve fitting (Y=D+[(A−D)/(1+(C/C50)nH)], where Y=specific binding, D=minimum specific binding, A=maximum specific binding, C=compound concentration, C50=IC50, and nH=slope factor). This analysis was performed using a software developed at Cerep (Hill software) and validated by comparison with data generated by the commercial software SigmaPlot® 4.0 for Windows® (© 1997 by SPSS Inc.). The inhibition constants (Ki) were calculated using the Cheng Prusoff equation (Ki=IC50/(1+(L/KD)), where L=concentration of radioligand in the assay, and KD=affinity of the radioligand for the receptor). A scatchard plot was used to determine the Kd.
Experimental conditions for tests are given in Table 4, and results of tests for representative compounds of the invention are given in Table 5a and 5b (receptors 5-HT1A, 5-HT2A, 5-HT6 and 5-HT7) and in Table 6 (receptors 5-HT2C).

[1] = molecular target: T2, 5-HT1A receptor (rat hippocampus) (Rattus norvegicus, UniProt P19327); assay: Radioligand binding assay, serotoninergic 5-HT1A receptors; conditions: binding assay result in %, Table 5a;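 note: test compound at 1 µM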
T2 construct: hippocampus; from tissue; host or cells: rat hippocampus
T2 sequence (P19327 1-422): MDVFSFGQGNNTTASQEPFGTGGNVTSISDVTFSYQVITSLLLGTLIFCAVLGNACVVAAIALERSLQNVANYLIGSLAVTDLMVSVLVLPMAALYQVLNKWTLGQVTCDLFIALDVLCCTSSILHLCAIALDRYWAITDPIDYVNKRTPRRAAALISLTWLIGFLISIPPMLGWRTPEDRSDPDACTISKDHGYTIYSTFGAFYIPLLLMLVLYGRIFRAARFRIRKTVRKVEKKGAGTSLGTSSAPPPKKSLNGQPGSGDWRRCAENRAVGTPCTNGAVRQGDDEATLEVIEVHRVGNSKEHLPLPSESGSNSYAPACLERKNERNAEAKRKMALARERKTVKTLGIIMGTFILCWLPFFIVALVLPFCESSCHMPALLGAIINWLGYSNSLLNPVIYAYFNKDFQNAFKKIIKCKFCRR

5-HT7 receptor = molecular target: T3, 5-HT7 receptor (Homo sapiens, UniProt P34969); assay: Radioligand binding assay, serotoninergic 5-HT7 receptors; conditions: binding assay result in %, Table 5a;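 note: test compound at 1 µM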
T3 construct: purchased PerkinElmer
Procedure, shortened: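 Competition binding at human 5-HT7 receptors with a radioligand, detected by scintillation counting; non-specific binding was defined with excess unlabelled ligand. IC50 came from Hill-equation fits of competition curves, and Ki from Cheng–Prusoff using radioligand concentration and Scatchard-derived KD.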

α2C adrenergic receptors = molecular target: T4, α2C adrenergic receptors (Homo sapiens, UniProt P18825); assay: Radioligand binding assay, adrenergic α2C receptors; conditions: test compound 1×10^−6 M
T4 construct: expressed in transfected cells; host or cells: CHO cells
T4 sequence (P18825 1-462): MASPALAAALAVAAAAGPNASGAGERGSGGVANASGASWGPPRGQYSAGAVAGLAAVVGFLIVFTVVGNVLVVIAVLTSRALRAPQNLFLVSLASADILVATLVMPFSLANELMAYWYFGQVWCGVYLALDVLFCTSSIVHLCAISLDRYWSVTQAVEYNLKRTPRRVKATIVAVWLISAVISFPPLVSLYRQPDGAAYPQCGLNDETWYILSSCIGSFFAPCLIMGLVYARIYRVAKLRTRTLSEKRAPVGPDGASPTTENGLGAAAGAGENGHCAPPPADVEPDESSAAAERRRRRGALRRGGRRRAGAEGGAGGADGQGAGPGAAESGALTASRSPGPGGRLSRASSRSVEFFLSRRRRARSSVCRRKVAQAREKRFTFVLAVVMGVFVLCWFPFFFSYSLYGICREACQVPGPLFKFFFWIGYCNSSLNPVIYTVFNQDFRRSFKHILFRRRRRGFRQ
Text: as §1, §2
Experimental conditions for tests are given in Table 7, and results of tests for representative compounds are given in Tables 8 (α1 receptors) and in Tables 9 (α2C receptors).

T3 sequence (P34969 whole entry): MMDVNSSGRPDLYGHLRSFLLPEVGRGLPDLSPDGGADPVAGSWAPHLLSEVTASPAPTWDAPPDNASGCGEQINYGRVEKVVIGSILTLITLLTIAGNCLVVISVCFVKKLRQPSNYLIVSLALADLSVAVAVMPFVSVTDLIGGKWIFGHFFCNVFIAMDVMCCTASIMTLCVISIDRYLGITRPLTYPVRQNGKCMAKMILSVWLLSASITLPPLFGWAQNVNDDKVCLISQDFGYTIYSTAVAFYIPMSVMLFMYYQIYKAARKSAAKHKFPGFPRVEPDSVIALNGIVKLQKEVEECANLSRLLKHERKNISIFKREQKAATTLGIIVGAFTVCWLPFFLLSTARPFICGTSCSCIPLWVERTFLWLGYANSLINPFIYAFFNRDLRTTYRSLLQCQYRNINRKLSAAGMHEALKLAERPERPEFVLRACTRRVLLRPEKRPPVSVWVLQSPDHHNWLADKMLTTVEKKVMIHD

Compound	inhibition at 1 µM (5-HT2C receptor) [%]	inhibition at 1 µM [1] [%]	inhibition at 1 µM (5-HT7 receptor) [%]	inhibition at 1 µM (α2C adrenergic receptors) [%]	5-HT1A [%] [1] [%]	5-HT7 [%] (5-HT7 receptor)
O=S(=O)(N[C@H]1CCN(CCCc2noc3cc(F)ccc23)C1)c1ccc2cc(Cl)ccc2c1 [Compound 201, 6-Chloro-N-[(3S)-1-[3-(6-fluoro-1,2-benzoxazol-3-yl)propyl]pyrrolidin-3-yl]naphthalene-2-sulphonamide]	72	32	95	89	–	–
Cn1ccc2cc(S(=O)(=O)NC3CCN(CCCc4noc5cc(F)ccc45)C3)ccc21 (stereo not drawn) [Compound 218, N-[1-[3-(6-Fluoro-1,2-benzoxazol-3-yl)propyl]pyrrolidin-3-yl]-1-methyl-indole-5-sulphonamide]	82	91	98	94	–	–
O=S(=O)(NCC1CN(CCCc2noc3cc(F)ccc23)C1)c1cc2ccccc2s1 [Compound 127, N-[[1-[3-(6-Fluoro-1,2-benzoxazol-3-yl)propyl]azetidin-3-yl]methyl]benzo-thiophene-2-sulphonamide]	84	–	–	93	71	96
O=S(=O)(NC1CCN(CCCc2noc3cc(F)ccc23)C1)c1cc2ccc(F)cc2s1 (stereo not drawn) [Compound 234, 6-Fluoro-N-[1-[3-(6-fluoro-1,2-benzoxazol-3-yl)propyl]pyrrolidin-3-yl]benzothiophene-2-sulphonamide]	86	45	97	90	–	–
O=S(=O)(NCC1CCN(CCOc2cccc3c2OCCO3)C1)c1cccc(F)c1 (stereo not drawn) [Compound 298, N-[[1-[2-(2,3-Dihydro-1,4-benzodioxin-5-yloxy)ethyl]pyrrolidin-3-yl]-methyl]-3-fluoro-benzenesulphonamide]	37	97	93	94	–	–
Cc1c(S(=O)(=O)N[C@@H]2CCN(CCCc3noc4cc(F)ccc34)C2)sc2ccc(F)cc12 [Compound 202, 5-Fluoro-N-[(3R)-1-[3-(6-fluoro-1,2-benzoxazol-3-yl)propyl]pyrrolidin-3-yl]-3-methyl-benzothiophene-2-sulphonamide]	88	65	98	95	–	–
O=S(=O)(NCC1CCN(CCOc2cccc3c2OCCO3)C1)c1ccc(F)cc1 (stereo not drawn) [Compound 300, N-[[1-[2-(2,3-Dihydro-1,4-benzodioxin-5-yloxy)ethyl]pyrrolidin-3-yl]-methyl]-4-fluoro-benzenesulphonamide]	34	99	90	92	–	–
O=S(=O)(N[C@H]1CCN(CCCc2noc3cc(F)ccc23)C1)c1ccc2ccccc2c1 [Compound 207, N-[(3S)-1-[3-(6-Fluoro-1,2-benzoxazol-3-yl)propyl]pyrrolidin-3-yl]-naphthalene-2-sulphonamide]	–	58	99	90	–	–
O=S(=O)(N[C@@H]1CCN(CCCc2noc3cc(F)ccc23)C1)c1cc2ccccc2s1 [Compound 196, N-[(3R)-1-[3-(6-Fluoro-1,2-benzoxazol-3-yl)propyl]pyrrolidin-3-yl]benzo-thiophene-2-sulphonamide]	86	54	101	89	–	–
Cc1c(S(=O)(=O)N[C@H]2CCN(CCCc3noc4cc(F)ccc34)C2)sc2ccc(F)cc12 [Compound 203, 5-Fluoro-N-[(3S)-1-[3-(6-fluoro-1,2-benzoxazol-3-yl)propyl]pyrrolidin-3-yl]-3-methyl-benzothiophene-2-sulphonamide]	90	60	99	93	–	–
O=S(=O)(NCC1CCN(CCOc2cccc3c2OCCO3)C1)c1ccc(C(F)(F)F)cc1 (stereo not drawn) [Compound 293, N-[[1-[2-(2,3-Dihydro-1,4-benzodioxin-5-yloxy)ethyl]pyrrolidin-3-yl]methyl]-4-(trifluoromethyl)benzenesulphonamide]	50	100	90	95	–	–
O=S(=O)(NCC1CCN(CCOc2cccc3c2OCCO3)C1)c1ccc(F)c(Cl)c1 (stereo not drawn) [Compound 317, 3-Chloro-N-[[1-[2-(2,3-dihydro-1,4-benzodioxin-5-yloxy)ethyl]pyrrolidin-3-yl]methyl]-4-fluorobenzenesulphonamide]	45	100	95	95	–	–
O=S(=O)(NCC1CCN(CCOc2cccc3c2OCCO3)C1)c1ccc2c(c1)CCO2 (stereo not drawn) [Compound 306, N-[[1-[2-(2,3-Dihydro-1,4-benzodioxin-5-yloxy)ethyl]pyrrolidin-3-yl]-methyl]-2,3-dihydrobenzofuran-5-sulphonamide]	36	99	94	98	–	–
O=S(=O)(NCC1CCN(CCOc2cccc3c2OCCO3)C1)c1cccc(O)c1 (stereo not drawn) [Compound 303, N-[[1-[2-(2,3-Dihydro-1,4-benzodioxin-5-yloxy)ethyl]pyrrolidin-3-yl]-methyl]-3-hydroxy-benzenesulphonamide]	47	96	98	100	–	–
Cc1ccc2sc(S(=O)(=O)N[C@H]3CCN(CCCc4noc5cc(F)ccc45)C3)cc2c1 [Compound 229, N-[(3S)-1-[3-(6-Fluoro-1,2-benzoxazol-3-yl)propyl]pyrrolidin-3-yl]-5-methylbenzothiophene-2-sulphonamide]	–	46	99	98	–	–
Cc1ccc2sc(S(=O)(=O)N[C@@H]3CCN(CCCc4noc5cc(F)ccc45)C3)cc2c1 [Compound 228, N-[(3R)-1-[3-(6-Fluoro-1,2-benzoxazol-3-yl)propyl]pyrrolidin-3-yl]-5-methyl-benzothiophene-2-sulphonamide]	91	27	92	95	–	–
O=S(=O)(N[C@@H]1CCN(CCCc2noc3cc(F)ccc23)C1)c1ccc2cc(Cl)ccc2c1 [Compound 200, 6-Chloro-N-[(3R)-1-[3-(6-fluoro-1,2-benzoxazol-3-yl)propyl]pyrrolidin-3-yl]naphthalene-2-sulphonamide]	77	50	93	96	–	–
